Experimental data taken from PubChem BioAssay (NCI).
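Where inhibition never reached the appropriate level, the endpoint shown equals the highest concentration tested. Otherwise, values were interpolated linearly from a five-concentration, 48-hour dose response in 96-well plates. TGI: total growth inhibition.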

Key:
Assay in all cases: NCI tumour cell line growth inhibition, 48 h
SNB-78 CNS = test system: SNB-78 CNS
OVCAR-5 ovarian = test system: OVCAR-5 ovarian
UACC-257 melanoma = test system: UACC-257 melanoma
MOLT-4 leukemia = test system: MOLT-4 leukemia
ACHN renal = test system: ACHN renal
OVCAR-4 ovarian = test system: OVCAR-4 ovarian
SF-295 CNS = test system: SF-295 CNS
SNB-19 CNS = test system: SNB-19 CNS
RPMI-8226 leukemia = test system: RPMI-8226 leukemia
NCI-H522 lung = test system: NCI-H522 lung
SK-MEL-28 melanoma = test system: SK-MEL-28 melanoma
SF-539 CNS = test system: SF-539 CNS
NCI-H23 lung = test system: NCI-H23 lung
RXF 393 renal = test system: RXF 393 renal
SF-268 CNS = test system: SF-268 CNS
COLO 205 colon = test system: COLO 205 colon
MALME-3M melanoma = test system: MALME-3M melanoma
OVCAR-3 ovarian = test system: OVCAR-3 ovarian
K-562 leukemia = test system: K-562 leukemia
HL-60(TB) leukemia = test system: HL-60(TB) leukemia
U251 CNS = test system: U251 CNS
CCRF-CEM leukemia = test system: CCRF-CEM leukemia
NCI-H460 lung = test system: NCI-H460 lung
IGROV1 ovarian = test system: IGROV1 ovarian
M19-MEL melanoma = test system: M19-MEL melanoma
UACC-62 melanoma = test system: UACC-62 melanoma
KM20L2 colon = test system: KM20L2 colon
SK-MEL-2 melanoma = test system: SK-MEL-2 melanoma
SNB-75 CNS = test system: SNB-75 CNS
HOP-62 NSCLC = test system: HOP-62 NSCLC
HT29 colon = test system: HT29 colon
LXFL 529 NSCLC = test system: LXFL 529 NSCLC
KM12 colon = test system: KM12 colon
HOP-92 NSCLC = test system: HOP-92 NSCLC
SR leukemia = test system: SR leukemia
SK-OV-3 ovarian = test system: SK-OV-3 ovarian
UO-31 renal = test system: UO-31 renal
HCT-15 colon = test system: HCT-15 colon
A549 NSCLC = test system: A549 NSCLC
HCT-116 colon = test system: HCT-116 colon
NCI-H226 lung = test system: NCI-H226 lung
786-0 renal = test system: 786-0 renal
SN12C renal = test system: SN12C renal
DLD-1 colon = test system: DLD-1 colon
DMS 114 small cell lung = test system: DMS 114 small cell lung
M14 melanoma = test system: M14 melanoma
TK-10 renal = test system: TK-10 renal
HCC-2998 colon = test system: HCC-2998 colon
EKVX NSCLC = test system: EKVX NSCLC
A498 renal = test system: A498 renal
CAKI-1 renal = test system: CAKI-1 renal
OVCAR-8 ovarian = test system: OVCAR-8 ovarian
SW-620 colon = test system: SW-620 colon
SK-MEL-5 melanoma = test system: SK-MEL-5 melanoma
RXF-631 renal = test system: RXF-631 renal

`COC(=O)C(Cc1ccccc1)N=Cc1c(O)c(O)c(C(C)C)c2cc(C)c(-c3c(C)cc4c(C(C)C)c(O)c(O)c(C=NC(Cc5ccccc5)C(=O)OC)c4c3O)c(O)c12` (stereo not drawn) was tested, and the TGI (SNB-78 CNS) was 29.2 µM, the TGI (OVCAR-5 ovarian) was 49.3 µM and the TGI (UACC-257 melanoma) was 63 µM. The TGI (MOLT-4 leukemia) was 11.6 µM, the TGI (ACHN renal) was 74.3 µM and the TGI (OVCAR-4 ovarian) was 64.5 µM. For the same compound, the TGI (SF-295 CNS) was 35.6 µM, the TGI (SNB-19 CNS) was over 100 µM and the TGI (RPMI-8226 leukemia) was 92.3 µM. For the same compound, the TGI (NCI-H522 lung) was 54.7 µM, the TGI (SK-MEL-28 melanoma) was over 100 µM and the TGI (SF-539 CNS) was 43.6 µM. The TGI (NCI-H23 lung) was 74.6 µM, the TGI (RXF 393 renal) was 35 µM and the TGI (SF-268 CNS) was over 100 µM. It also gave a TGI (COLO 205 colon) of 92.9 µM, a TGI (MALME-3M melanoma) of over 100 µM and a TGI (OVCAR-3 ovarian) of 52.1 µM. The TGI (K-562 leukemia) was over 100 µM, the TGI (HL-60(TB) leukemia) was 59 µM and the TGI (U251 CNS) was 55.2 µM. The TGI (CCRF-CEM leukemia) was 38.5 µM, the TGI (NCI-H460 lung) was 51.4 µM and the TGI (IGROV1 ovarian) was over 100 µM. The TGI (M19-MEL melanoma) was over 100 µM, the TGI (UACC-62 melanoma) was 55.9 µM and the TGI (KM20L2 colon) was 55.3 µM. The TGI (SK-MEL-2 melanoma) was 44 µM, the TGI (SNB-75 CNS) was over 100 µM and the TGI (HOP-62 NSCLC) was over 100 µM. It also gave a TGI (HT29 colon) of 32.5 µM, a TGI (LXFL 529 NSCLC) of 38.5 µM and a TGI (KM12 colon) of 39.7 µM. For the same compound, the TGI (HOP-92 NSCLC) was 77 µM, the TGI (SR leukemia) was 10.1 µM and the TGI (SK-OV-3 ovarian) was 81 µM. The TGI (UO-31 renal) was 80.7 µM.

Compound `O=C1OC(=O)C2C1C1C(c3ccccc3)=C(c3ccccc3)C2(O)C2C(=O)OC(=O)C12` (stereo not drawn) has a TGI (SNB-78 CNS) of over 100 µM, a TGI (HCT-15 colon) of over 100 µM and a TGI (OVCAR-5 ovarian) of over 100 µM. The TGI (UACC-257 melanoma) was over 100 µM, the TGI (MOLT-4 leukemia) was over 100 µM and the TGI (ACHN renal) was over 100 µM. For the same compound, the TGI (A549 NSCLC) was over 100 µM, the TGI (OVCAR-4 ovarian) was over 100 µM and the TGI (SF-295 CNS) was over 100 µM. For the same compound, the TGI (SNB-19 CNS) was over 100 µM, the TGI (RPMI-8226 leukemia) was over 100 µM and the TGI (HCT-116 colon) was over 100 µM. The TGI (NCI-H522 lung) was over 100 µM, the TGI (SK-MEL-28 melanoma) was over 100 µM and the TGI (NCI-H226 lung) was over 100 µM. For the same compound, the TGI (NCI-H23 lung) was over 100 µM, the TGI (786-0 renal) was over 100 µM and the TGI (SN12C renal) was over 100 µM. The TGI (SF-268 CNS) was over 100 µM, the TGI (DLD-1 colon) was over 100 µM and the TGI (COLO 205 colon) was over 100 µM. The TGI (MALME-3M melanoma) was over 100 µM, the TGI (OVCAR-3 ovarian) was over 100 µM and the TGI (K-562 leukemia) was over 100 µM. For the same compound, the TGI (DMS 114 small cell lung) was over 100 µM, the TGI (U251 CNS) was over 100 µM and the TGI (M14 melanoma) was over 100 µM. The TGI (CCRF-CEM leukemia) was over 100 µM, the TGI (NCI-H460 lung) was over 100 µM and the TGI (IGROV1 ovarian) was over 100 µM. The TGI (TK-10 renal) was over 100 µM, the TGI (M19-MEL melanoma) was over 100 µM and the TGI (UACC-62 melanoma) was over 100 µM. For the same compound, the TGI (HCC-2998 colon) was over 100 µM, the TGI (KM20L2 colon) was over 100 µM and the TGI (SK-MEL-2 melanoma) was over 100 µM. For the same compound, the TGI (SNB-75 CNS) was over 100 µM, the TGI (HOP-62 NSCLC) was over 100 µM and the TGI (EKVX NSCLC) was over 100 µM. It also gave a TGI (HT29 colon) of over 100 µM, a TGI (LXFL 529 NSCLC) of over 100 µM and a TGI (KM12 colon) of over 100 µM. It also gave a TGI (HOP-92 NSCLC) of over 100 µM, a TGI (A498 renal) of over 100 µM and a TGI (SR leukemia) of over 100 µM. The TGI (SK-OV-3 ovarian) was over 100 µM, the TGI (CAKI-1 renal) was over 100 µM and the TGI (UO-31 renal) was over 100 µM. The TGI (OVCAR-8 ovarian) was over 100 µM and the TGI (SW-620 colon) was over 100 µM.

With `C#Cc1ccccc1N1C(=O)C=CC1=O` the TGI (SNB-78 CNS) was over 100 µM, the TGI (OVCAR-5 ovarian) was over 100 µM and the TGI (UACC-257 melanoma) was over 100 µM. For the same compound, the TGI (MOLT-4 leukemia) was over 100 µM, the TGI (ACHN renal) was over 100 µM and the TGI (A549 NSCLC) was over 100 µM. For the same compound, the TGI (OVCAR-4 ovarian) was over 100 µM, the TGI (SF-295 CNS) was over 100 µM and the TGI (SNB-19 CNS) was over 100 µM. For the same compound, the TGI (RPMI-8226 leukemia) was over 100 µM, the TGI (HCT-116 colon) was over 100 µM and the TGI (NCI-H522 lung) was over 100 µM. It also gave a TGI (SK-MEL-28 melanoma) of over 100 µM, a TGI (NCI-H226 lung) of over 100 µM and a TGI (NCI-H23 lung) of over 100 µM. For the same compound, the TGI (786-0 renal) was over 100 µM, the TGI (SN12C renal) was over 100 µM and the TGI (SF-268 CNS) was over 100 µM. The TGI (DLD-1 colon) was over 100 µM, the TGI (COLO 205 colon) was over 100 µM and the TGI (MALME-3M melanoma) was over 100 µM. The TGI (OVCAR-3 ovarian) was over 100 µM, the TGI (K-562 leukemia) was over 100 µM and the TGI (HL-60(TB) leukemia) was over 100 µM. For the same compound, the TGI (DMS 114 small cell lung) was over 100 µM, the TGI (U251 CNS) was over 100 µM and the TGI (M14 melanoma) was over 100 µM. For the same compound, the TGI (CCRF-CEM leukemia) was over 100 µM, the TGI (NCI-H460 lung) was over 100 µM and the TGI (IGROV1 ovarian) was over 100 µM. The TGI (TK-10 renal) was over 100 µM, the TGI (M19-MEL melanoma) was over 100 µM and the TGI (UACC-62 melanoma) was over 100 µM. It also gave a TGI (KM20L2 colon) of over 100 µM, a TGI (SK-MEL-2 melanoma) of over 100 µM and a TGI (SNB-75 CNS) of over 100 µM. The TGI (HOP-62 NSCLC) was over 100 µM, the TGI (EKVX NSCLC) was over 100 µM and the TGI (HT29 colon) was over 100 µM. The TGI (LXFL 529 NSCLC) was over 100 µM, the TGI (A498 renal) was over 100 µM and the TGI (SK-MEL-5 melanoma) was over 100 µM. For the same compound, the TGI (SR leukemia) was over 100 µM, the TGI (SK-OV-3 ovarian) was over 100 µM and the TGI (CAKI-1 renal) was over 100 µM. For the same compound, the TGI (UO-31 renal) was over 100 µM, the TGI (OVCAR-8 ovarian) was over 100 µM and the TGI (SW-620 colon) was over 100 µM.

In the case of `CCNC(CCCC(NCC)P(=O)(O)O)P(=O)(O)O` (stereo not drawn), the TGI (SNB-78 CNS) is reported as over 100 µM, the TGI (OVCAR-5 ovarian) is reported as over 100 µM and the TGI (UACC-257 melanoma) is reported as over 100 µM. The TGI (MOLT-4 leukemia) was over 100 µM, the TGI (A549 NSCLC) was over 100 µM and the TGI (SF-295 CNS) was over 100 µM. It also gave a TGI (SNB-19 CNS) of over 100 µM, a TGI (HCT-116 colon) of over 100 µM and a TGI (NCI-H522 lung) of over 100 µM. The TGI (SK-MEL-28 melanoma) was over 100 µM, the TGI (RXF-631 renal) was over 100 µM and the TGI (NCI-H226 lung) was over 100 µM. The TGI (NCI-H23 lung) was over 100 µM, the TGI (RXF 393 renal) was over 100 µM and the TGI (HL-60(TB) leukemia) was over 100 µM. It also gave a TGI (U251 CNS) of over 100 µM, a TGI (M14 melanoma) of over 100 µM and a TGI (CCRF-CEM leukemia) of over 100 µM. For the same compound, the TGI (NCI-H460 lung) was over 100 µM, the TGI (IGROV1 ovarian) was over 100 µM and the TGI (TK-10 renal) was over 100 µM. For the same compound, the TGI (M19-MEL melanoma) was over 100 µM, the TGI (UACC-62 melanoma) was over 100 µM and the TGI (KM20L2 colon) was over 100 µM. The TGI (HOP-62 NSCLC) was over 100 µM, the TGI (HT29 colon) was over 100 µM and the TGI (KM12 colon) was over 100 µM. It also gave a TGI (HOP-92 NSCLC) of over 100 µM, a TGI (A498 renal) of over 100 µM and a TGI (SR leukemia) of over 100 µM. It also gave a TGI (SK-OV-3 ovarian) of over 100 µM, a TGI (UO-31 renal) of over 100 µM and a TGI (OVCAR-8 ovarian) of over 100 µM.
